According to patent publication US10220069B2, “Compositions and methods for treating diabetes” (THE JOHNS HOPKINS UNIVERSITY, priority 2014, dated 2019):
Each block holds one compound with its values, some of them ahead of it.

Assays:
Gcgr = molecular target: T1, Gcgr (Mus musculus, UniProt Q61606); assay: Gcgr antagonist GAI or inactive analog GAC 60 min before ipGTT in HFD and Lepr db/db mice; format: in vivo
T1 construct: endogenous in cells; host or cells: live mice (WT, Gcgrfl/fl, HFD-fed C57Bl/6, Lepr db/db); hepatic receptor
Experimental: Intraperitoneal glucose tolerance (ipGTT) and insulin tolerance (ipITT) tests were performed according to standard protocols (Song et al., 2013; Song et al., 2011). After 9 am-3 pm fasting, animals were administered 20% D-glucose (via ip injection), insulin 0.5 U/kg i.p. (Novolin), glucagon (100 μg/kg i.p. (Sigma)). […] The glucagon receptor antagonist GAI (N-(3-Cyano-6-(1,1-dimethylpropyl)-4,5,6,7-tetrahydro-1-benzothien-2-yl)-2-ethylbutanamide (Qureshi et al., 2004) and its non-active analogue were administered (50 mg/kg i.p. in DMSO) in HFD fed and Lepr^db/db mice 60 min before i. GTT. Intraperitoneal pyruvate converstion (1 g/kg i.p.) test (ipPCT) in ΔL-Prkar1a mice was performed in the fed state (9 am) to avoid any confounding effects of fasting-induced elevated endogenous glucagon levels. Tail-vein blood was collected at the indicated times in figures for glucose and insulin measurements. Serum insulin was measured using mouse magnetic bead panel (Millipore, Luminex). Plasma for glucagon measurements was drawn from mice in the fed state at 9 am, unless otherwise noted for fasting studies. Plasma glucagon (Alpco) and kisspeptin1 (USCN Life Sciences Inc. E92559Ra) were measured by ELISA according to manufacturer's instructions including dilution of samples.
Liver Kiss1 Upregulation is Linked to Hyperglucagonemia in DM.

islets = assay: Islets incubated 48 hours with K54: cAMP dependent, ER stress, oxidative stress and NLRP3 inflammasome markers (Table 5); format: cell-based, mouse; details: K54 10 nM
Experimental: Kisspeptin1 Causes ERS and UPR in Islets Independently of Hyperglycemia. […] Because reduction in cAMP signaling in β-cells reduces IRS2 and PDX1 and provokes ERS/UPR and apoptosis 11,12, we examined whether kisspeptin action on β-cells may provoke ERS/UPR. Islets were incubated in 10 nM […]. To control for stimulus for increased insulin biosynthesis and potential UPR response, we incubated islets at 5 and 10 mM glucose. […] Incubation at 10 mM glucose stimulated oxidative stress ERS and NLRP-I markers, but less pronounced than […] at 5 mM glucose. Treatment with […] at high (10 mM) glucose further augmented ERS/UPR, oxidative stress and NLRP3-I markers. Thus, kisspeptin treatment even at normoglycemia stimulates in islets the ERS/UPR response more potently than hyperglycemia (glucose 10 mM) and […] aggravates ERS/UPR induced by hyperglycemia only (Table 5).

Kiss1R [1] = molecular target: T2, Kiss1R (Mus musculus, UniProt Q91V45); assay: Glucose stimulated insulin secretion (GSIS) from cultured mouse islets, static incubation; format: cell-based; design: GSIS at very high kisspeptin concentration: dose or concentration left out as unconfirmed
T2 construct: Mouse brain, mouse islets, insulinoma cells, and human islets express Kiss1R; from tissue; host or cells: isolated mouse pancreatic islets (WT / Kiss1Rfl/fl, C57Bl/6 background)
Experimental: Isolated Islet Studies. Islet isolation was performed by collagenase digestion, gradient centrifugation, and three rounds of microscope-assisted manual picking of islets. Static incubation studies were conducted as previously described with 20 handpicked, equal-sized islets were studied in each group (Song et al., 2011). After overnight culture (37_C, 5% CO2, and 95% O2 in humid chamber) of isolated islets in RPMI 1640 (Mediatech) containing 5 mM glucose, 1% each Na-Pyruvate, HEPES, Penicillin/Streptomycin, and 0.2% BSA, islets were switched to either 10 or 20 mM glucose containing RPMI 1640. Where indicated, Kisspeptin-10 (0-100 nM, and […]), E4 (10 nM), or vehicle (PBS) was added. After 30 min incubation glucose concentrations, supernatant was taken for insulin measurements and pelleted islets were taken in acid ethanol (0.18M HCl in 70% ethanol) for insulin measurements in islets (ELISA, Alpco). Islet protein concentration was measured using the BCA method (Thermo Fisher).
Islet studies. Islet isolation was performed by collagenase digestion, gradient centrifugation and three rounds of microscope-assisted manual picking of islets (Song et al., 2011). Static incubation studies were conducted as previously described with 20 hand-picked equalized islets were studied in each group. Islets were cultured in RPMI 1640 medium (Invitrogen) containing 10 or 20 mM D-glucose (as indicated) and supplemented with 0.2% bovine serum albumin, 1% each Na-Pyruvate, HEPES, Penicillin/Streptomycin. After 30 min incubation glucose concentrations, supernatant was taken for insulin measurements and pelleted islets were taken in acid ethanol (0.18M HCl in 70% ethanol) for insulin measurements in islets (Alpco). Islet protein concentration was measured using the BCA method (Thermo Fisher).
Insulin secretion during static incubation. After overnight culture (37 C, 5% CO2, 95% O2 in humid chamber) of isolated islets in RPMI 1640 (Mediatech) containing 5 mM glucose, 1% each Na-Pyruvate, HEPES, Penicillin/Streptomycin and 0.2% bovine serum albumin (BSA), islets were switched to either 10 or 20 mM glucose containing RPMI 1640. […] After 30 min incubation glucose concentrations, supernatant was taken for insulin measurements and pelleted islets were taken in acid ethanol (0.18M HCl in 70% ethanol) for insulin measurements in islets (ELISA, Alpco). Islet protein concentration was measured using the BCA method (Thermo Fisher).

Kiss1R [2] = molecular target: T2, Kiss1R; assay: Islet cAMP concentrations (ELISA) in response to kisspeptin; format: cell-based
Experimental: (§1) For studies with plasma incubation, a final concentration of plasma was 1% or 10% (vol/vol). […] Islets were taken in 0.18M HCL/70% ethanol to extract and measure total islet insulin content. cAMP concentrations were measured in islet extracts using ELISA (Enzo Life Sciences).

Kiss1R [3] = molecular target: T2, Kiss1R; assay: Islet perifusion assay, first and second phase GSIS; format: cell-based; details: isolated mouse islets
Experimental: Perifusion studies were performed as previously published (Song et al., 2013; Song et al., 2011) with slight modifications. The perifusate was Krebs ringer buffer (KRB) (37 C, pH 7.4) containing 0.2% BSA fraction V, 24 mM sodium bicarbonate and was gassed with 95% air and 5% CO2. Perifusion (1 ml/min) occurred for the first 30 minutes with a KRB containing 3 mM glucose for equilibration, after which time the perifusate was collected in 1 ml fractions. After additional 10 minutes, glucose in the perifusate was increased to 10 mM. […] Insulin was measured in selected individual eluent fractions at 30, 35, 40, 42, 45, 50, 55, 60 min (Alpco ELISA). The first 10 minutes after increasing glucose was defined as first phase, the period thereafter was defined as second phase of insulin secretion. At the end of the perifusion protocol, 30 mM KCL was administered into the perifusate to depolarize β-cells. Insulin levels were normalized to total islet protein, which was spectrophotometrically determined (Eppendorf) after completion of the perifusion protocol.

Kiss1R [4] = molecular target: T2, Kiss1R; assay: ipGTT with ip coinjection of kisspeptin and glucose; format: in vivo
Experimental: Intraperitoneal glucose tolerance (ipGTT) and insulin tolerance (ipITT) tests were performed according to standard protocols (Song et al., 2013; Song et al., 2011). After 9 am-3 pm fasting, animals were administered 20% D-glucose (via ip injection), insulin 0.5 U/kg i.p. (Novolin), glucagon (100 μg/kg i.p. (Sigma)). […] Plasma for glucagon measurements was drawn from mice in the fed state at 9 am, unless otherwise noted for fasting studies. Plasma glucagon (Alpco) and kisspeptin1 (USCN Life Sciences Inc. E92559Ra) were measured by ELISA according to manufacturer's instructions including dilution of samples.

[5] = molecular target: T3, receptor for the incretin hormone glucagon-like peptide-1 (GLP-1) (Mus musculus, UniProt O35659); assay: Islet cAMP synthesis in response to exendin-4; format: cell-based
T3 construct: from tissue; host or cells: isolated mouse pancreatic islets (Kiss1Rfl/fl and Panc-ΔKiss1R)
T3 sequence (O35659 22-463): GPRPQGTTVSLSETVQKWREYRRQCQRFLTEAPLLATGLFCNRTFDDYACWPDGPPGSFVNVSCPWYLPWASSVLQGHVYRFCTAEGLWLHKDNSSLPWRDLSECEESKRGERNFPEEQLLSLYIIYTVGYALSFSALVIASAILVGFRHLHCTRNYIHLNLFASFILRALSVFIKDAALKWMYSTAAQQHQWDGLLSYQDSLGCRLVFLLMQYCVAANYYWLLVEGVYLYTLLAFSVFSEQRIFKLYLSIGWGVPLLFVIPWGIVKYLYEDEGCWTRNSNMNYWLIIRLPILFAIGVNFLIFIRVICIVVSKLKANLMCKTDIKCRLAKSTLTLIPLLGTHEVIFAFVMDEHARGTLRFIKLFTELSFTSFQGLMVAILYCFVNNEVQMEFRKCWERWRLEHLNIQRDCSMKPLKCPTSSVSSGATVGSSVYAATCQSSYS
Experimental: as §1

[6] = Kiss1Rfl/fl and Panc-DKiss1R islets

T2 sequence (Q91V45 whole entry): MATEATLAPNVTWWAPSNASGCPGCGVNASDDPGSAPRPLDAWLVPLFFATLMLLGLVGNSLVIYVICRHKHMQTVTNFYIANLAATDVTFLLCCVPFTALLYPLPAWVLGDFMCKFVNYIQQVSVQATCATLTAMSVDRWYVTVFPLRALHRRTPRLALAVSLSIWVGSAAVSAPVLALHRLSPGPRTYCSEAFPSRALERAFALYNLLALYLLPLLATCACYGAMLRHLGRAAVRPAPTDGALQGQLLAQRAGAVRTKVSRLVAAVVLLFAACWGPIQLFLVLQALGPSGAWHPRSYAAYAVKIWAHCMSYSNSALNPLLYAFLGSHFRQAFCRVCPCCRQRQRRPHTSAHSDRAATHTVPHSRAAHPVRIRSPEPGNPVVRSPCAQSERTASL
T1 sequence (Q61606 27-485): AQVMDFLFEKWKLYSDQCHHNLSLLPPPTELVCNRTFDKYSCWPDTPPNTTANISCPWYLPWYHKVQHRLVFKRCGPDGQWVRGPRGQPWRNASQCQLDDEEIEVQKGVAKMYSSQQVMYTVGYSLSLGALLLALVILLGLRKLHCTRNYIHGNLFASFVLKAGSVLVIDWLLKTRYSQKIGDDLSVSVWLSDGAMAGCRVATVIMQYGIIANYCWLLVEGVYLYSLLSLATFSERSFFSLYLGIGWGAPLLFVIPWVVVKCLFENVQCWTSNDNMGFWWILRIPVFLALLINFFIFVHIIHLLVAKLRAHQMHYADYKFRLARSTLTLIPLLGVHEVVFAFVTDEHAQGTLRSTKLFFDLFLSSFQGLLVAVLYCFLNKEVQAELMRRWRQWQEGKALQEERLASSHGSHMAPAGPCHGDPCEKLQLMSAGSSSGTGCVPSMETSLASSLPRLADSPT

liver Kiss1 expression (Gcgr; HFD and Lepr db/db mice): reduction
liver gluconeogenic gene expression (Pparg1a, Src1, G6P, Pck1 mRNA) (Gcgr; HFD and Lepr db/db mice): reduction
liver pCREB (Gcgr; HFD and Lepr db/db mice): corresponding reductions
CREB occupancy of CRE 1 and 2 in the Kiss1 promoter (Gcgr; HFD and Lepr db/db mice, in vivo ChIP): reduces CREB occupancy
basal glycemia and GT (Gcgr; HFD and Lepr db/db mice, single dose 50 mg/kg i.p. 60 min before ipGTT, versus GAC): improved basal glycemia as well as GT
circulating plasma glucagon levels (Gcgr; HFD fed and Lepr db/db mice, fed state, 60 min after treatment): remained unchanged
Compound: CCC(CC)C(=O)Nc1sc2c(c1C#N)CCC(C(C)(C)CC)C2 (stereo not drawn) [GAI, N-(3-Cyano-6-(1,1-dimethylpropyl)-4,5,6,7-tetrahydro-1-benzothien-2-yl)-2-ethylbutanamide]

Catalase (Oxidative stress) (islets; Hyperglycemia Glucose 10 mM): 8.8 ± 0.5
Catalase (Oxidative stress) (islets; Normoglycemia Glucose 5 mM): 6.2 ± 0.6
lowest concentration suppressing GSIS (Kiss1R [1]; Kiss1Rfl/fl mouse islets, serum-free media, 10 or 20 mM glucose): 0.1 nM
E4-potentiated GSIS (Kiss1R [1]; mouse islets cultured at 10 mM glucose, static incubation): dose-dependently suppressed
islet cAMP production in response to exendin-4 (E4) (Kiss1R [2]; Kiss1Rfl/fl (WT) islets): impaired islet cAMP production
islet cAMP concentrations (Kiss1R [2]; WT mouse islets, 10 mM glucose, 10 nM): lower cAMP concentrations
baseline and E4-induced cAMP concentrations in Panc-DKiss1R islets (Kiss1R [2]; islets lacking Kiss1R): not affected
E4-potentiated GSIS, first and second phase (Kiss1R [3]): suppressed
first (0-10 min after glucose stimulation) and second phases of GSIS (Kiss1R [3]; 10 mM glucose): suppressed
in vivo GSIS in control (Kiss1rfl/fl, WT) mice (Kiss1R [4]; 10 nmol ip with glucose during ipGTT): suppressed GSIS
in vivo GSIS in Panc-DKiss1R mice (Kiss1R [4]; 10 nmol ip, mice lacking pancreas Kiss1R): did not affect GSIS
Compound: Gly-Thr-Ser-Leu-Ser-Pro-Pro-Pro-Glu-Ser-Ser-Gly-Ser-Arg-Gln-Gln-Pro-Gly-Leu-Ser-Ala-Pro-His-Ser-Arg-Gln-Ile-Pro-Ala-Pro-Gln- Gly-Ala-Val-Leu-Val-Gln-Arg-Glu- Lys-Asp-Leu-Pro-Asn-Tyr-Asn-Trp-Asn-Ser-Phe-Gly-Leu-Arg-Phe-NH2 [K54]
ATF5 (NLRP3 Inflammasome) (islets; Hyperglycemia Glucose 10 mM): 1.9 ± 0.4
CHOP (ER stress) (islets; Hyperglycemia Glucose 10 mM): 2.2 ± 0.5
IL-1β (NLRP3 Inflammasome) (islets; Hyperglycemia Glucose 10 mM): 1.9 ± 0.2
IRS2 (cAMP dependent) (islets; Hyperglycemia Glucose 10 mM): 0.6 ± 0.2
PDI (ER stress) (islets; Hyperglycemia Glucose 10 mM): 1.8 ± 0.3
PDX1 (cAMP dependent) (islets; Hyperglycemia Glucose 10 mM): 0.5 ± 0.3
SOD1 (Oxidative stress) (islets; Hyperglycemia Glucose 10 mM): 3.2 ± 0.3
SOD2 (Oxidative stress) (islets; Hyperglycemia Glucose 10 mM): 2.4 ± 0.4
Spliced XBP-1 (ER stress) (islets; Hyperglycemia Glucose 10 mM): 2.1 ± 0.4
TXNIP (NLRP3 Inflammasome) (islets; Hyperglycemia Glucose 10 mM): 5.5 ± 0.3
Total XBP-1 (ER stress) (islets; Hyperglycemia Glucose 10 mM): 1.5 ± 0.3
ATF5 (NLRP3 Inflammasome) (islets; Normoglycemia Glucose 5 mM): 1.4 ± 0.4
CHOP (ER stress) (islets; Normoglycemia Glucose 5 mM): 1.9 ± 0.4
IL-1β (NLRP3 Inflammasome) (islets; Normoglycemia Glucose 5 mM): 1.7 ± 0.3
IRS2 (cAMP dependent) (islets; Normoglycemia Glucose 5 mM): 0.5 ± 0.3
PDI (ER stress) (islets; Normoglycemia Glucose 5 mM): 1.4 ± 0.4
PDX1 (cAMP dependent) (islets; Normoglycemia Glucose 5 mM): 0.6 ± 0.2
SOD1 (Oxidative stress) (islets; Normoglycemia Glucose 5 mM): 2.1 ± 0.4
SOD2 (Oxidative stress) (islets; Normoglycemia Glucose 5 mM): 1.9 ± 0.3
Spliced XBP-1 (ER stress) (islets; Normoglycemia Glucose 5 mM): 1.8 ± 0.5
TXNIP (NLRP3 Inflammasome) (islets; Normoglycemia Glucose 5 mM): 4.8 ± 1.1
Total XBP-1 (ER stress) (islets; Normoglycemia Glucose 5 mM): 1.4 ± 0.3
GSIS at very high kisspeptin concentration (Kiss1R [1]; [6]): GSIS stimulation from both Kiss1Rfl/fl and Panc-DKiss1R islets
GSIS from Panc-DKiss1R islets (Kiss1R [1]; islets lacking Kiss1R, nanomolar concentrations): impervious to K54-mediated GSIS suppression
GSIS from Kiss1Rfl/fl (WT) mouse islets (Kiss1R [1]; static incubation, nanomolar concentrations (0-100 nM), 10 or 20 mM glucose): suppressed GSIS in a dose-dependent manner
glucose tolerance in WT mice (Kiss1R [4]; acute administration, 10 nmol ip): impaired glucose tolerance

Compound: exendin-4 [E4]
islet cAMP synthesis [5, 6]: stimulates cAMP synthesis
reversal of K10-reduced cAMP production ([5]; isolated WT mouse islets treated with K10): partially reversed
